{"source": "patent US12042560B2", "about": "“Liposome composition” (Eisai R&D Management Co., Ltd., priority 2009, dated 2024)", "key": {"[1]": {"test": "Maximum tolerated dose in nude mice", "details": "mouse, in vivo, intravenous, free bodies", "description": "FaDu (obtained from the American Type Culture Collection), which is a human pharyngeal squamous cell carcinoma line, was cultured and grown in a 10% bovine fetal serum-containing MEM culture. The cells were separated from the flask using 0.05% Trypsin-EDTA solution and collected. After washing with PBS, the cells were suspended in PBS so as to be 5×10^7 cells/mL and kept on ice. 0.1 mL of cell suspension liquid were subcutaneously injected in the right ventral portion of 6-week old nude mice (Charles River Laboratories Japan, Inc.). Each mouse was observed daily, and notes were made appropriately in cases where abnormal conditions were found. Calipers were used to measure the tumor size over time, and the tumor size was calculated based on the calculation formula: major axis×(minor axis squared)÷2. […]\nACHN (obtained from the American Type Culture Collection), which is a human renal cancer cell line, was cultured and grown in a 10% bovine fetal serum-containing MEM culture. […] Calipers were used to measure the tumor size over time, and the tumor size was calculated based on the calculation formula: major axis×(minor axis squared)÷2. […]"}, "[2]": {"system": "FaDu human pharyngeal squamous cell carcinoma line", "test": "In vivo antitumor activity in FaDu cancer-bearing nude mice", "details": "free bodies, 4 mg/kg, caudal vein, 3 times in 7-day intervals, FIG. 2", "description": "FaDu (obtained from the American Type Culture Collection), which is a human pharyngeal squamous cell carcinoma line, was cultured and grown in a 10% bovine fetal serum-containing MEM culture. The cells were separated from the flask using 0.05% Trypsin-EDTA solution and collected. After washing with PBS, the cells were suspended in PBS so as to be 5×10^7 cells/mL and kept on ice. 0.1 mL of cell suspension liquid were subcutaneously injected in the right ventral portion of 6-week old nude mice (Charles River Laboratories Japan, Inc.). Each mouse was observed daily, and notes were made appropriately in cases where abnormal conditions were found. Calipers were used to measure the tumor size over time, and the tumor size was calculated based on the calculation formula: major axis×(minor axis squared)÷2. At the point when the tumor size was 100 to 200 mm^3, the mice were separated into groups such that the average values of the tumor sizes and the mouse body weights were uniform among the test groups (five mice per test group), and the drug was administered into the caudal vein (0.2 mL/20 g; 3 times in 7-day intervals)."}, "[3]": {"system": "ACHN human renal cancer cell line", "test": "In vivo antitumor activity in ACHN cancer-bearing nude mice", "details": "free body, 2 mg/kg, 3 mg/kg and 4 mg/kg, 45 days after the start of sample administration, FIG. 3", "description": "ACHN (obtained from the American Type Culture Collection), which is a human renal cancer cell line, was cultured and grown in a 10% bovine fetal serum-containing MEM culture. The cells were separated from the flask using 0.05% Trypsin-EDTA solution and collected. After washing with PBS, the cells were suspended in PBS so as to be 5×10^7 cells/mL and then kept on ice. 0.1 mL of cell suspension liquid were subcutaneously injected in the right ventral portion of 6-week old nude mice (Charles River Laboratories Japan, Inc.). Each mouse was observed daily, and notes made appropriately in cases where abnormal conditions were found. Calipers were used to measure the tumor size over time, and the tumor size was calculated based on the calculation formula: major axis×(minor axis squared)÷2. At the point when the tumor size was 150 to 200 mm^3, the mice were separated into groups such that the average values of the tumor sizes and the body weights of mice were uniform among the test groups (five mice per test group), and the drug was administered into the caudal vein (0.2 mL/20 g; 3 times in 7-day intervals)."}}, "note": "Counter-ions that a name gives are not always drawn."}
{"compound": "C=C1C[C@@H]2CC[C@@]34C[C@H]5O[C@H]6[C@@H](O3)[C@H]3O[C@H](CC[C@@H]3O[C@H]6[C@H]5O4)CC(=O)C[C@@H]3[C@@H](OC)[C@@H](C[C@H](O)CN)O[C@H]3C[C@H]3O[C@@H](CC[C@@H]1O2)C[C@@H](C)C3=C", "note": "[Eribulin mesylate, eribulin mesylate]", "values": [{"measurement": "MTD", "setting": "[1]", "value": 4, "unit": "mg/kg"}, {"measurement": "Tumor-reducing effect (average tumor volume)", "setting": "[2]", "value": "a tumor-reducing effect was not obtained"}, {"measurement": "Tumor volume versus non-treated group", "setting": "[3]", "value": "no significant difference was found"}]}
